{"source": "patent US4806532A", "about": "“Inhibition of epithelial phosphate transport” (Mayo Foundation for Medical Education and Research, priority 1985, dated 1989)", "key": {"[1]": {"test_system": "L-[^3 H]-proline uptake by BBMV", "experiment": "Na+-gradient-dependent uptake of L-[3H]-proline by renal BBMV", "type": "biochemical, rat", "settings": "1 mM TPFA; mean ± SEM, n=4; control 43±3", "experimental": "(§1) The brush border membrane vesicles (BBMV) were prepared from renal cortical tissue of adult male Sprague-Dawley rats of an average body weight of about 220 grams. Rats were fed ad libitum standard rat chow containing 0.7% Pi and had free access to distilled water. Rats were sacrificed under anesthesia and dissected renal cortical tissue was used for preparation of BBMV fraction by the divalent cation-precipitation procedure, employed and described in detail in J. Clin. Invest., 67, 1347 (1981) and J. Biol. Chem., 258, 5695 (1983), with the following modifications: (a) MgCl2 instead of CaCl2 was added to crude homogenate (final concentration 10 mM MgCl2) to precipitate membranes other than BBMV; (b) in the final step, BBMV were washed and equilibrated in a medium of pH=7.5, instead of pH=8.5. The enrichment and specific activities of typical BBM enzymes alkaline phosphatase (APases), γ-glutyamyl transferase (γ-GTT), leucineaminopeptidase (LAP) and maltase with use of these modifications were similar as in BBMV fractions prepared in our previous studies. […]\n(§2) The BBMV uptake of ^32 Pi, D-[^3 H]-glucose, L-[^3 H]-proline and ^22 Na^+ was measured by means of a rapid filtration technique, as described in J. Clin. Invest., 67, 1347 (1981) and Am. […]"}, "[2]": {"test_system": "thyroparathyroidectomized (TPTX) rats", "experiment": "Urinary excretion of Pi and other electrolytes after TPFA in vivo", "parameters": "species or system rat; Phosphate excretion: unit not given here", "experimental": "Surgically thyroparathyroidectomized (TPTX) rats of 180-220 g body wt (Johnson Laboratories, Chicago, IL) were placed in metabolic cages and were fed 15 g of the low phosphate (P =0.07%) diet (ICN, Cleveland, OH) and 25 ml distilled water per day prior to and throughout the study (J. Clin. Invest. 67, 1347 (1981)). The animals were weighed daily. Urine samples (24-hour period) were collected each day for determination of urine volue, creatinine, Pi, Ca^++, Na^+ and K^+. After stabilization of rats on the low phosphate diet for 4 days, the \"experimental\" group of rats were injected with TPFA (500 mg/kg b wt) intraperitoneally, divided in two daily doses, while the \"control\" rats received the vehicle only. TPFA for i.p. injection was dissolved in distilled water and the control animals were injected with the same volume of NaCl solution containing the equimolar amount of Na^+. When appropriate, the results were evaluated statistically using student's t-test for either group or paired comparisons. Values of P >0.05 were considered nonsignificant (NS)."}, "(Na-K)ATPase": {"target": "T1, (Na-K)ATPase (Rattus norvegicus, UniProt P06685)", "T1 construct": "from tissue; host or cells: basolateral membrane, kidney (tissue and rat inferred)", "experiment": "Effect on BaLM enzyme (Na-K)ATPase (data not shown)", "type": "biochemical"}, "[3]": {"test_system": "D-[^3 H]-glucose uptake by BBMV", "experiment": "Na+-gradient-dependent uptake of D-[3H]-glucose by renal BBMV", "type": "biochemical, rat", "settings": "1 mM TPFA; mean ± SEM, n=4; control 66±15", "experimental": "as §1, §2"}, "Na-Pi cotransporter": {"target": "T2, Na-Pi cotransporter (Canis lupus familiaris, UniProt A0A8I3NFY6)", "T2 construct": "were prepared from renal cortices of mongrel dogs, albino mice and New Zealand albino rabbits; from tissue; host or cells: mongrel dog renal cortex, brush border membrane vesicles", "T2 sequence (A0A8I3NFY6 1-639)": "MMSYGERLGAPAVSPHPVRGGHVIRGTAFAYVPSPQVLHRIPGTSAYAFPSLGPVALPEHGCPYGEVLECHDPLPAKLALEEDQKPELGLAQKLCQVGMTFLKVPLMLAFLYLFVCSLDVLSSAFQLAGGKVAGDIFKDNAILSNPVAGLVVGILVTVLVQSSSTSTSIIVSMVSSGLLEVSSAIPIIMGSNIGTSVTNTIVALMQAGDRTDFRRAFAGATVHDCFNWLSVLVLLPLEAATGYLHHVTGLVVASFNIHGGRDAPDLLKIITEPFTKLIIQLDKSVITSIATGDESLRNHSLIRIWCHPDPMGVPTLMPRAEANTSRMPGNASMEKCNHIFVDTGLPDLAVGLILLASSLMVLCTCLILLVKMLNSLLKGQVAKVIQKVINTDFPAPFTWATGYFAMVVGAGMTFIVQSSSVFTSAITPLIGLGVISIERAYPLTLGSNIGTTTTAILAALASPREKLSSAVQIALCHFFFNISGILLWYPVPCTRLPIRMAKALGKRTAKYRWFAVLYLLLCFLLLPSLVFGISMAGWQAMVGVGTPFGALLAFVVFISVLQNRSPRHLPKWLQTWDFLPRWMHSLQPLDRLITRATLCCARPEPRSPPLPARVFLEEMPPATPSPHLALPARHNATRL", "experiment": "Na+-gradient-dependent 32Pi uptake by renal BBMV, dog", "type": "biochemical", "experimental": "The brush border membrane vesicles (BBMV) were prepared from renal cortical tissue of adult male Sprague-Dawley rats of an average body weight of about 220 grams. Rats were fed ad libitum standard rat chow containing 0.7% Pi and had free access to distilled water. Rats were sacrificed under anesthesia and dissected renal cortical tissue was used for preparation of BBMV fraction by the divalent cation-precipitation procedure, employed and described in detail in J. Clin. Invest., 67, 1347 (1981) and J. Biol. Chem., 258, 5695 (1983), with the following modifications: (a) MgCl2 instead of CaCl2 was added to crude homogenate (final concentration 10 mM MgCl2) to precipitate membranes other than BBMV; (b) in the final step, BBMV were washed and equilibrated in a medium of pH=7.5, instead of pH=8.5. The enrichment and specific activities of typical BBM enzymes alkaline phosphatase (APases), γ-glutyamyl transferase (γ-GTT), leucineaminopeptidase (LAP) and maltase with use of these modifications were similar as in BBMV fractions prepared in our previous studies. As a final step in the preparative procedure, the BBMV fraction was washed and resuspended in a medium containing 300 mM mannitol and 5 mM Tris-HEPES adjusted to pH=t.5, referred to as \"MTH-medium,\" unless specified otherwise. The analogous BBMV fractions, using the same procedure, were prepared from renal cortices of mongrel dogs, albino mice and New Zealand albino rabbits.\nThe BBMV uptake of ^32 Pi, D-[^3 H]-glucose, L-[^3 H]-proline and ^22 Na^+ was measured by means of a rapid filtration technique, as described in J. Clin. Invest., 67, 1347 (1981) and Am. J. Physiol., 246, F133-F139 (1984). Also, unless specified otherwise, the medium for the solute uptake assay consisted of following compounds (in final concentrations): 100 mM mannitol, 100 mM NaCl (or 100 mM KC1) and 5 mM Tris-HEPES (pH=7.5) and eitehr 0.1 mM K2 H^32 PO4, or 0.05 mM D-[^3 H]-glucose, or 0.025 mM L-[^3 H]-proline. IN the ^22 Na^+ uptake studies, the assay medium contained 100 mM ^22 NaCl (^22 NaCl about […] per tube), 100 mM mannitol and 5 mM Tris-HEPES (pH 7.5).\nIn most experiments, the Na^+ -gradient-dependent ^32 Pi uptake in the concentrative \"uphill\" phase was measured at 20 seconds period. Since Na^+ -independent Pi uptake in this time period was quantitatively minor component (<5%) of the Na^+ -gradient-dependent Pi uptake, it was not routinely subtracted."}, "[4]": {"settings": "in vivo; cited from earlier work"}, "[5]": {"settings": "Day 1 (baseline), experimental group, TPTX rats"}, "[6]": {"settings": "Day 2, TPFA 500 mg/kg per day i.p. on day 2 and day 3, TPTX rats"}, "[7]": {"settings": "Day 3, TPFA 500 mg/kg per day i.p. on day 2 and day 3, TPTX rats"}, "[8]": {"settings": "Day 4, after TPFA 500 mg/kg per day i.p. on day 2 and day 3, TPTX rats"}}, "note": "Counter-ions that a name gives are not always drawn."}
{"smiles": "O=C(O)P(=O)(O)O", "note": "[TPFA, Phosphonoformic acid, trisodium salt hexahydrate]", "values": [{"measurement": "equilibrium uptake of L-[3H]-proline at 120 minutes", "setting": "[1]", "value": "43+1 pmoles/mg protein"}, {"measurement": "Calcium excretion", "setting": "[2]; [5]", "value": "0.3 ± 0.07", "unit": "mmoles/mg creatinine"}, {"measurement": "Potassium excretion", "setting": "[2]; [5]", "value": "7.3 ± 1.0", "unit": "mmoles/mg creatinine"}, {"measurement": "Sodium excretion", "setting": "[2]; [5]", "value": "6.8 ± 1.1", "unit": "mmoles/mg creatinine"}, {"measurement": "Phosphate excretion", "setting": "[2]; Day 1 (baseline, before injections on day 2 and 3), experimental group, TPTX rats on low phosphate diet, relative to creatinine, mean ± SEM of 8-9 rats", "value": "11.8 ± 6.0"}, {"measurement": "Phosphate excretion", "setting": "[2]; Day 2, TPFA 500 mg/kg per day i.p. in two doses on day 2 and day 3, TPTX rats, low phosphate diet, relative to creatinine", "value": "30.8 ± 6.6"}, {"measurement": "Calcium excretion", "setting": "[2]; [6]", "value": "0.2 ± 0.09", "unit": "mmoles/mg creatinine"}, {"measurement": "Potassium excretion", "setting": "[2]; [6]", "value": "7.6 ± 1.1", "unit": "mmoles/mg creatinine"}, {"measurement": "Sodium excretion", "setting": "[2]; [6]", "value": "8.0 ± 1.1", "unit": "mmoles/mg creatinine"}, {"measurement": "Phosphate excretion", "setting": "[2]; Day 3, TPFA 500 mg/kg per day i.p. in two doses on day 2 and day 3, TPTX rats, significantly increased vs Day 1 (P < 0.025)", "value": "122.1 ± 37.8"}, {"measurement": "Calcium excretion", "setting": "[2]; [7]", "value": "0.3 ± 0.2", "unit": "mmoles/mg creatinine"}, {"measurement": "Potassium excretion", "setting": "[2]; [7]", "value": "11.8 ± 3.9", "unit": "mmoles/mg creatinine"}, {"measurement": "Sodium excretion", "setting": "[2]; [7]", "value": "19.4 ± 11.6", "unit": "mmoles/mg creatinine"}, {"measurement": "Calcium excretion", "setting": "[2]; [8]", "value": "0.6 ± 0.5", "unit": "mmoles/mg creatinine"}, {"measurement": "Phosphate excretion", "setting": "[2]; [8]", "value": "79.8 ± 46.9"}, {"measurement": "Potassium excretion", "setting": "[2]; [8]", "value": "12.9 ± 5.3", "unit": "mmoles/mg creatinine"}, {"measurement": "Sodium excretion", "setting": "[2]; [8]", "value": "15.1 ± 7.0", "unit": "mmoles/mg creatinine"}, {"measurement": "urinary excretion of Pi (in words)", "setting": "[2]; TPFA i.p. in two daily doses, TPTX rats on low phosphate diet, FIG. 3", "value": "severalfold increase"}, {"measurement": "urinary excretion of Na+, K+ or calcium (in words)", "setting": "[2]; TPFA i.p. in two daily doses, TPTX rats, same urine samples", "value": "did not change"}, {"measurement": "effect on BaLM enzyme (Na-K)ATPase", "setting": "(Na-K)ATPase", "value": "without inhibitory effect"}, {"measurement": "uptake of D-[3H]-glucose at 120 minutes", "setting": "[3]", "value": "65±12", "unit": "pmoles/mg protein"}, {"measurement": "32Pi-uptake 120 min", "setting": "Na-Pi cotransporter; 1 mM TPFA, control 410 ± 5", "value": "377 ± 6", "unit": "pmoles Pi/mg protein/time"}, {"measurement": "32Pi-uptake 20 sec", "setting": "Na-Pi cotransporter; 1 mM TPFA, control 1178 ± 15", "value": "476 ± 9", "unit": "pmoles Pi/mg protein/time"}, {"measurement": "32Pi-uptake 20 sec", "setting": "Na-Pi cotransporter; 5 mM TPFA", "value": "110 ± 3", "unit": "pmoles Pi/mg protein/time"}, {"measurement": "32Pi-uptake 120 min", "setting": "Na-Pi cotransporter; 5 mM TPFA", "value": "428 ± 9", "unit": "pmoles Pi/mg protein/time"}, {"measurement": "inhibition at 1000 µM", "setting": "Na-Pi cotransporter; 20 s, 1 mM TPFA, read-out: percent decrease of 20 sec 32Pi-uptake relative to control value", "value": 59.6, "unit": "%"}, {"measurement": "inhibition at 5000 µM", "setting": "Na-Pi cotransporter; 20 s, 5 mM TPFA, read-out: percent decrease of 20 sec 32Pi-uptake relative to control value", "value": 90.7, "unit": "%"}, {"measurement": "toxic effects on bone in general toxicity studies", "setting": "[4]", "value": "not toxic effects on bone"}]}
